# According to patent publication US20230085307A1, “PYRIDAZINONE COMPOUND AND HERBICIDE” (NISSAN CHEMICAL CORPORATION, priority 2019, published 2023):
# Tests used:
# [1] = system: Italian ryegrass; experiment: Test Example 4: herbicidal effect by soil treatment (Table 19, symbol K); format: in vivo, Italian ryegrass (Lolium multiflorum); conditions: amount of applied herbicide 320 g/ha
# Procedure, shortened: (§1)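 Emulsion of test compound, water-diluted to predetermined amount, sprayed on soil after sowing (seed depth ~1.5 cm, sterilized diluvial soil). Greenhouse, 25–30° C. Effect graded at three weeks post-spray.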
# [2] = system: blackgrass; experiment: Test Example 5: herbicidal effect by foliage application, plastic box (Table 20, symbol J); format: in vivo, blackgrass (Alopecurus myosuroides); conditions: foliage application
# Procedure, shortened: (§2)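 Post-emergence foliar test in sterilized diluvial soil. Compound applied as water-diluted emulsion at a predetermined rate to 14-day-old plants; evaluation at three weeks.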
# [3] = system: chickweed; experiment: Test Example 4: herbicidal effect by soil treatment (Table 19, symbol P); format: in vivo, common chickweed (Stellaria media); conditions: amount of applied herbicide 320 g/ha
# Procedure, shortened: as §1
# [4] = system: persian speedwell; experiment: Test Example 4: herbicidal effect by soil treatment (Table 19, symbol R); format: in vivo, Persian speedwell (Veronica persica); conditions: amount of applied herbicide 320 g/ha
# Procedure, shortened: as §1
# [5] = system: windgrass; experiment: Test Example 4: herbicidal effect by soil treatment (Table 19, symbol L); format: in vivo, windgrass (Apera spica-venti); conditions: amount of applied herbicide 320 g/ha
# Procedure, shortened: as §1
# [6] = system: redroot pigweed; experiment: Test Example 5: herbicidal effect by foliage application, plastic box (Table 20, symbol N); format: in vivo, redroot pigweed (Amaranthus retroflexus); conditions: foliage application
# Procedure, shortened: as §2
# [7] = system: lambsquarters; experiment: Test Example 5: herbicidal effect by foliage application, plastic box (Table 20, symbol O); format: in vivo, lambsquarters (Chenopodium album); conditions: foliage application
# Procedure, shortened: as §2
# [8] = system: velvetleaf; experiment: Test Example 4: herbicidal effect by soil treatment (Table 19, symbol M); format: in vivo, velvetleaf (Abutilon theophrasti); conditions: amount of applied herbicide 320 g/ha
# Procedure, shortened: as §1
# [9] = system: lambsquarters; experiment: Test Example 4: herbicidal effect by soil treatment (Table 19, symbol O); format: in vivo, lambsquarters (Chenopodium album); conditions: amount of applied herbicide 320 g/ha
# Procedure, shortened: as §1
# [10] = system: Chinese sprangletop; experiment: Test Example 3: herbicidal effect by foliage application, Wagner pot (Table 18, symbol D); format: in vivo, chinese sprangletop (Leptochloa chinensis); conditions: amount of applied herbicide 320 g/ha
# Procedure, shortened: (§3)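 Plants were sown in alluvial soil held under 0.1–0.5 cm standing water and grown 14 days in a greenhouse at 25–30 °C. An emulsifiable formulation, water-diluted to the set dose, was then sprayed onto the foliage, and effects were scored three weeks later using previously defined criteria.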
# [11] = system: redroot pigweed; experiment: Test Example 4: herbicidal effect by soil treatment (Table 19, symbol N); format: in vivo, redroot pigweed (Amaranthus retroflexus); conditions: amount of applied herbicide 320 g/ha
# Procedure, shortened: as §1
# [12] = system: rice flat sedge; experiment: Test Example 3: herbicidal effect by foliage application, Wagner pot (Table 18, symbol E); format: in vivo, rice flat sedge (Cyperus iria); conditions: amount of applied herbicide 320 g/ha
# Procedure, shortened: as §3
# [13] = system: barnyard grass; experiment: Test Example 4: herbicidal effect by soil treatment (Table 19, symbol H); format: in vivo, barnyard grass (Echinochloa crus-galli); conditions: amount of applied herbicide 320 g/ha
# Procedure, shortened: as §1
# [14] = system: Japanese bulrush; experiment: Test Example 1: herbicidal activity, application before weed generation under submerged conditions (Table 16, symbol B); format: in vivo, Japanese bulrush (Schoenoplectus juncoides)
# Procedure, shortened: (§4)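 Submerged Wagner pots (alluvial soil, 4 cm water) sown with weed seeds and planted with 2.5-leaf rice seedlings; emulsifiable concentrate diluted in water applied to water surface on sowing day. Held in greenhouse at 25-30 °C; injury scored 0-5 by herbicidal rate after three weeks.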
# [15] = system: chickweed; experiment: Test Example 5: herbicidal effect by foliage application, plastic box (Table 20, symbol P); format: in vivo, common chickweed (Stellaria media); conditions: foliage application
# Procedure, shortened: as §2
# [16] = system: velvetleaf; experiment: Test Example 5: herbicidal effect by foliage application, plastic box (Table 20, symbol M); format: in vivo, velvetleaf (Abutilon theophrasti); conditions: foliage application
# Procedure, shortened: as §2
# [17] = system: green foxtail; experiment: Test Example 4: herbicidal effect by soil treatment (Table 19, symbol G); format: in vivo, green foxtail (Setaria viridis); conditions: amount of applied herbicide 320 g/ha
# Procedure, shortened: as §1
# [18] = system: barnyard grass; experiment: Test Example 5: herbicidal effect by foliage application, plastic box (Table 20, symbol H); format: in vivo, barnyard grass (Echinochloa crus-galli); conditions: foliage application
# Procedure, shortened: as §2
# [19] = system: green foxtail; experiment: Test Example 5: herbicidal effect by foliage application, plastic box (Table 20, symbol G); format: in vivo, green foxtail (Setaria viridis); conditions: foliage application
# Procedure, shortened: as §2
# [20] = system: barnyard grass; experiment: Test Example 3: herbicidal effect by foliage application, Wagner pot (Table 18, symbol H); format: in vivo, barnyard grass (Echinochloa crus-galli); conditions: amount of applied herbicide 320 g/ha
# Procedure, shortened: as §3
# [21] = system: blackgrass; experiment: Test Example 4: herbicidal effect by soil treatment (Table 19, symbol J); format: in vivo, blackgrass (Alopecurus myosuroides); conditions: amount of applied herbicide 320 g/ha
# Procedure, shortened: as §1
# [22] = system: southern crabgrass; experiment: Test Example 4: herbicidal effect by soil treatment (Table 19, symbol F); format: in vivo, southern crabgrass (Digitaria ciliaris); conditions: amount of applied herbicide 320 g/ha
# Procedure, shortened: as §1
# [23] = system: wild oat; experiment: Test Example 4: herbicidal effect by soil treatment (Table 19, symbol I); format: in vivo, wild oat (Avena fatua); conditions: amount of applied herbicide 320 g/ha
# Procedure, shortened: as §1
# [24] = system: late watergrass; experiment: Test Example 1: herbicidal activity, application before weed generation under submerged conditions (Table 16, symbol A); format: in vivo, late watergrass (Echinochloa oryzicola)
# Procedure, shortened: as §4
# [25] = system: Italian ryegrass; experiment: Test Example 5: herbicidal effect by foliage application, plastic box (Table 20, symbol K); format: in vivo, Italian ryegrass (Lolium multiflorum); conditions: foliage application
# Procedure, shortened: as §2
# [26] = system: windgrass; experiment: Test Example 5: herbicidal effect by foliage application, plastic box (Table 20, symbol L); format: in vivo, windgrass (Apera spica-venti); conditions: foliage application
# Procedure, shortened: as §2
# [27] = system: wild oat; experiment: Test Example 5: herbicidal effect by foliage application, plastic box (Table 20, symbol I); format: in vivo, wild oat (Avena fatua); conditions: foliage application
# Procedure, shortened: as §2
# [28] = system: southern crabgrass; experiment: Test Example 5: herbicidal effect by foliage application, plastic box (Table 20, symbol F); format: in vivo, southern crabgrass (Digitaria ciliaris); conditions: foliage application
# Procedure, shortened: as §2
# [29] = system: persian speedwell; experiment: Test Example 5: herbicidal effect by foliage application, plastic box (Table 20, symbol R); format: in vivo, Persian speedwell (Veronica persica); conditions: foliage application
# Procedure, shortened: as §2
# [30] = system: oval-leafed pondweed; experiment: Test Example 1: herbicidal activity, application before weed generation under submerged conditions (Table 16, symbol C); format: in vivo, oval-leafed pondweed (Monochoria vaginalis)
# Procedure, shortened: as §4
# [31] = 320 g/ha, three weeks after application
# [32] = amount of applied herbicide 320 g/ha
# [33] = AAH 320 g/ha, evaluated three weeks after application
compound,measurement,setting,value
CCCC(=O)Oc1c(CC)nn(C)c(=O)c1-c1c(-c2ccc(F)cc2)sc2ccc(F)cc12 [2-407],"herbicidal effect, K: Italian ryegrass",[1],0 (Herbicidal rate of 5% or less (almost no effect))
same,"J: blackgrass, herbicidal effect grade",[2]; [31],0 (Herbicidal rate of 5% or less (almost no effect))
same,"herbicidal effect, P: chickweed",[3],1 (Herbicidal rate of 5% or more and less than 20%)
same,"herbicidal effect, R: persian speedwell",[4],0 (Herbicidal rate of 5% or less (almost no effect))
same,"herbicidal effect, L: windgrass",[5],0 (Herbicidal rate of 5% or less (almost no effect))
same,"N: redroot pigweed, herbicidal effect grade",[6]; [31],5 (Herbicidal rate of 90% or more (almost completely withered))
same,"O: lambsquarters, herbicidal effect grade",[7]; [31],3 (Herbicidal rate of 40% or more and less than 70%)
same,"herbicidal effect, M: velvetleaf",[8],0 (Herbicidal rate of 5% or less (almost no effect))
same,"herbicidal effect, O: lambsquarters",[9],1 (Herbicidal rate of 5% or more and less than 20%)
same,herbicidal effect on D: Chinese sprangletop,[10],4 (Herbicidal rate of 70% or more and less than 90%)
same,"herbicidal effect, N: redroot pigweed",[11],3 (Herbicidal rate of 40% or more and less than 70%)
same,herbicidal effect on E: rice flat sedge,[12],4 (Herbicidal rate of 70% or more and less than 90%)
same,"herbicidal effect, H: barnyard grass",[13],0 (Herbicidal rate of 5% or less (almost no effect))
same,"Herbicidal effect, B: Japanese bulrush",[14]; [32],0 (Herbicidal rate of 5% or less (almost no effect))
same,"P: chickweed, herbicidal effect grade",[15]; [31],5 (Herbicidal rate of 90% or more (almost completely withered))
same,"M: velvetleaf, herbicidal effect grade",[16]; [31],5 (Herbicidal rate of 90% or more (almost completely withered))
same,"herbicidal effect, G: green foxtail",[17],1 (Herbicidal rate of 5% or more and less than 20%)
same,"H: barnyard grass, herbicidal effect grade",[18]; [31],3 (Herbicidal rate of 40% or more and less than 70%)
same,"G: green foxtail, herbicidal effect grade",[19]; [31],5 (Herbicidal rate of 90% or more (almost completely withered))
same,herbicidal effect on H: barnyard grass,[20],5 (Herbicidal rate of 90% or more (almost completely withered))
same,"herbicidal effect, J: blackgrass",[21],0 (Herbicidal rate of 5% or less (almost no effect))
same,"herbicidal effect, F: southern crabgrass",[22],0 (Herbicidal rate of 5% or less (almost no effect))
same,"herbicidal effect, I: wild oat",[23],0 (Herbicidal rate of 5% or less (almost no effect))
same,"Herbicidal effect, A: late watergrass",[24]; [32],3 (Herbicidal rate of 40% or more and less than 70%)
same,"K: Italian ryegrass, herbicidal effect grade",[25]; [31],3 (Herbicidal rate of 40% or more and less than 70%)
same,"L: windgrass, herbicidal effect grade",[26]; [31],0 (Herbicidal rate of 5% or less (almost no effect))
same,"I: wild oat, herbicidal effect grade",[27]; [31],0 (Herbicidal rate of 5% or less (almost no effect))
same,"F: southern crabgrass, herbicidal effect grade",[28]; [31],0 (Herbicidal rate of 5% or less (almost no effect))
same,"R: persian speedwell, herbicidal effect grade",[29]; [31],5 (Herbicidal rate of 90% or more (almost completely withered))
same,"Herbicidal effect, C: oval-leafed pondweed",[30]; [32],0 (Herbicidal rate of 5% or less (almost no effect))
CCSCc1ccc(-c2sc3ccc(F)cc3c2-c2c(O)c(C)nn(C)c2=O)cc1 [2-319],herbicidal effect on K: Italian ryegrass,[1],4 (Herbicidal rate of 70% or more and less than 90%)
same,"J: blackgrass, herbicidal effect (criteria 0-5)",[2]; [33],4 (Herbicidal rate of 70% or more and less than 90%)
same,herbicidal effect on P: chickweed,[3],0 (Herbicidal rate of 5% or less (almost no effect))
same,herbicidal effect on R: persian speedwell,[4],4 (Herbicidal rate of 70% or more and less than 90%)
same,herbicidal effect on L: windgrass,[5],1 (Herbicidal rate of 5% or more and less than 20%)
same,"N: redroot pigweed, herbicidal effect (criteria 0-5)",[6]; [33],5 (Herbicidal rate of 90% or more (almost completely withered))
same,"O: lambsquarters, herbicidal effect (criteria 0-5)",[7]; [33],5 (Herbicidal rate of 90% or more (almost completely withered))
same,herbicidal effect on M: velvetleaf,[8],3 (Herbicidal rate of 40% or more and less than 70%)
same,herbicidal effect on O: lambsquarters,[9],3 (Herbicidal rate of 40% or more and less than 70%)
same,herbicidal effect on D: Chinese sprangletop,[10],4 (Herbicidal rate of 70% or more and less than 90%)
same,herbicidal effect on N: redroot pigweed,[11],4 (Herbicidal rate of 70% or more and less than 90%)
same,herbicidal effect on E: rice flat sedge,[12],5 (Herbicidal rate of 90% or more (almost completely withered))
same,herbicidal effect on H: barnyard grass,[13],3 (Herbicidal rate of 40% or more and less than 70%)
same,Herbicidal effect on B: Japanese bulrush (grade 0-5),[14]; 320 g/ha applied herbicide,2 (Herbicidal rate of 20% or more and less than 40%)
same,"P: chickweed, herbicidal effect (criteria 0-5)",[15]; [33],5 (Herbicidal rate of 90% or more (almost completely withered))
same,"M: velvetleaf, herbicidal effect (criteria 0-5)",[16]; [33],5 (Herbicidal rate of 90% or more (almost completely withered))
same,herbicidal effect on G: green foxtail,[17],4 (Herbicidal rate of 70% or more and less than 90%)
same,"H: barnyard grass, herbicidal effect (criteria 0-5)",[18]; [33],5 (Herbicidal rate of 90% or more (almost completely withered))
same,"G: green foxtail, herbicidal effect (criteria 0-5)",[19]; [33],5 (Herbicidal rate of 90% or more (almost completely withered))
same,herbicidal effect on H: barnyard grass,[20],5 (Herbicidal rate of 90% or more (almost completely withered))
same,herbicidal effect on J: blackgrass,[21],0 (Herbicidal rate of 5% or less (almost no effect))
same,herbicidal effect on F: southern crabgrass,[22],4 (Herbicidal rate of 70% or more and less than 90%)
same,herbicidal effect on I: wild oat,[23],0 (Herbicidal rate of 5% or less (almost no effect))
same,Herbicidal effect on A: late watergrass (grade 0-5),[24]; 320 g/ha applied herbicide,4 (Herbicidal rate of 70% or more and less than 90%)
same,"K: Italian ryegrass, herbicidal effect (criteria 0-5)",[25]; [33],4 (Herbicidal rate of 70% or more and less than 90%)
same,"L: windgrass, herbicidal effect (criteria 0-5)",[26]; [33],4 (Herbicidal rate of 70% or more and less than 90%)
same,"I: wild oat, herbicidal effect (criteria 0-5)",[27]; [33],4 (Herbicidal rate of 70% or more and less than 90%)
same,"F: southern crabgrass, herbicidal effect (criteria 0-5)",[28]; [33],5 (Herbicidal rate of 90% or more (almost completely withered))
same,"R: persian speedwell, herbicidal effect (criteria 0-5)",[29]; [33],5 (Herbicidal rate of 90% or more (almost completely withered))
same,Herbicidal effect on C: oval-leafed pondweed (grade 0-5),[30]; 320 g/ha applied herbicide,3 (Herbicidal rate of 40% or more and less than 70%)
